These results are taken from patent US20260021181A1, “CHIMERIC COSTIMULATORY RECEPTORS, CHEMOKINE RECEPTORS, AND THE USE OF SAME IN CELLULAR IMMUNOTHERAPIES” (Iovance Biotherapeutics, Inc., priority 2022, published 2026).

As a reminder, the EC50 is the concentration needed to bring the measured effect to its halfway point.

For experiment [1], the system named is TIL. The experiment in a line: Cytokine expression of TILs after overnight anti-CD3/CD28 bead stimulation. Type of experiment: cell-based. The text has this: Control or decitabine-treated cryopreserved TILs were thawed and stained for flow cytometry analysis.
The test system of experiment [2] is TIL. The experiment in a line: AKT inhibitor (ipatasertib) added during ex vivo TIL expansion: expansion, viability, phenotype. Type of experiment: cell-based. As to the method: Patient tumors from different indications were received, fragmented, and subjected to an expansion protocol for TIL manufacturing. Different doses (0.3 μM and 1 μM) of the pan-AKT inhibitor ipatasertib were added to the culture during ex vivo expansion. The expansion potential, as well as the phenotypic and functional characteristics were evaluated on the final TIL product. Eight tumors, including tumors from melanoma, NSCLC, head and neck cancer, ovarian cancer, and breast cancer, were used in combination with the Gen 2 process. […] Expansion, viability and T cell distribution in control and AKT inhibitor-treated TILs are shown. TILs were left untreated or treated with increasing concentrations of the pan-AKT inhibitor ipatasertib. Treatment was added either during the pre-REP and REP (blue bars) or during the REP stage only (purple bars). Fold expansion and viability of TIL at the end of the 22-day expansion process are shown. Frequency of CD8^+, CD4^+ and CD4^+ (Foxp3^+) cells after the expansion process on cryopreserved cells are also shown.

Experiment [3] addresses PD-L1 (Homo sapiens, UniProt Q9NZQ7). The experiment in a line: Hek-IL-18 SEAP reporter assay of CCR8 and CCR8.2 stimulated with PD-L1. Type of experiment: cell-based. The conditions noted are these: 650 nm, IL-18 standard. As to the method: The biological function of the CCR constructs was tested with Hek-IL-18 SEAP reporter lines. CCR8 and CCR8.2 transduced HekIL-18 reporter cells (5×10^4) were stimulated with the indicated concentration of PD-L1 (His tagged) in the presence of anti-His antibody (antibody:protein ratio=2:1; e.g., for 5 μg/mL PD-L1, add 10 μg/mL anti-His antibody). After 24 hours, supernatants were harvested, and SEAP level was determined with a spectrophotometer at 650 nm after adding Quanti-blue solution. CCR12 and CCR12.2 transduced HekIL-18 reporter cells (5×10^4) were stimulated with the indicated concentration of TROP-2 (His tagged) in the presence of anti-His antibody (antibody:protein ratio=2:1). After 24 hours, supernatants were harvested, and SEAP level was determined with a spectrophotometer at 650 nm after adding Quanti-blue solution.
(A reporter such as luciferase makes a cellular process visible.)

The target of experiment [4] is T1, PD-L1 (human, UniProt Q9NZQ7 19-238, limits assumed).
T1 construct: also called hPD-L1; CD274
The experiment in a line: EC50 of anti-PD-L1 antibody clone; assay not given.

Experiment [5] concerns the target T2, human PD-L1 on hPD-L1 Raji cells (human, UniProt Q9NZQ7 19-290).
T2 construct: whole, on cells
As to the kind of experiment: flow cytometry on hPD-L1 Raji cells, titration in the presence of the other antibody.

T1 sequence (Q9NZQ7 19-238 limits assumed): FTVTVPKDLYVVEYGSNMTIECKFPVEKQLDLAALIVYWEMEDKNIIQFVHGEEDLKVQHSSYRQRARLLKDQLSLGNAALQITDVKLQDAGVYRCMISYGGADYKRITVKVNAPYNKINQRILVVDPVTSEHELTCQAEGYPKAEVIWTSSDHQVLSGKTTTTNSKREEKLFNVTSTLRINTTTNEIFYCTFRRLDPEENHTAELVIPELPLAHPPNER
T2 sequence (Q9NZQ7 19-290): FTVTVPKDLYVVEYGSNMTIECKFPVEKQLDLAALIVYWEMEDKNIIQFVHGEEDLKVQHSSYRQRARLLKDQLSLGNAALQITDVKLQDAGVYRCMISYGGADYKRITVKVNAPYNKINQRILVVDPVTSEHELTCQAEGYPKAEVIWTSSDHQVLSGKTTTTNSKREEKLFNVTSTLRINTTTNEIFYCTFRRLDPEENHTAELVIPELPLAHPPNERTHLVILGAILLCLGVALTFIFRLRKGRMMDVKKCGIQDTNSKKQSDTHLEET
PD-L1 (Homo sapiens, UniProt Q9NZQ7), sequence (Q9NZQ7 19-290): as above

On to `CC(C)NC[C@@H](C(=O)N1CCN(c2ncnc3c2[C@H](C)C[C@H]3O)CC1)c1ccc(Cl)cc1` [ipatasertib], for which the “frequency of IFNγ+TNFα+CD8+ T cells” value in the experiment on TIL [1] is reported as “increase”. Further, in the experiment on TIL [1] (1 μM at pre-REP and REP, anti-CD3/CD28 beads overnight, bead-to-cell ratio 1:5), the “cytokine output following stimulation” value was “higher cytokine output”. Moreover, in the experiment with TIL [2], the “IL-7R and CXCR3 expression on CD8+ TILs” value is listed as “increase”; the “TOX expression following stimulation” value is “lower”; the “frequency of CD8+ TEMRA cells” value is “increase”; the “frequency of less differentiated CD8+CD69−CD39− T cells on CD8+ and CD4+ TILs” value is reported as “increases”. Moreover, in the experiment with TIL [2] (1 μM dose), the “expansion and viability of TILs relative to controls” value was “equivalent”; the “expression of CD38 and transcription factors T-bet and TOX in CD39− CD69− cells” value is reported as “reduced expression”; the “population of less differentiated CD39− CD69− cells” value is listed as “doubled”. Also, the “T cell ratios (CD8+, CD4+, CD4+ Foxp3+)” value in the experiment with TIL [2] (after the expansion process) is given as “without affecting”. The “TIL expansion and viability” value in the experiment on TIL [2] (pre-REP and REP or REP only, end of 22-day expansion) was “maintains”.

On to “IL-18: IL-18 standard in Hek-IL-18 SEAP reporter assay”, for which, in the experiment with PD-L1 [3], the “IL-18 stimulation equivalent to an OD value of 0.5” value is “about 3.175 pg/mL”.

B1: 19H9-IgG4-Flag (antibody)
chain: QVQLQESGGGLVKPGGSLRLSCAASGFTFSSYSMNWVRQAPGKGLEWVSGINTAGDTHYPESVKGRFTISRDNARNSLNLQMNSLRAEDTAVYYCVRERVEREYSGYDAFDIWGQGTTVTVSAGGGGSGGGGSGGGGSGAPNFMLTQPHSVSESLGKTVTISCTGSSGSIARKFVQWYQQRPGSSPTTVIYENNQRPSGVSDRFSGSIGSSSNSASLTISGLKTEDEADYYCQSYDSSNVVFGGGTKVTVL
B1: the midpoint of the response with PD-L1 [4], the EC50, lay at 125 pM.

B2: 19H9-IgG4-Flag (antibody)
chain: QVQLQESGGGLVKPGGSLRLSCAASGFTFSSYSMNWVRQAPGKGLEWVSGINTAGDTHYPESVKGRFTISRDNARNSLNLQMNSLRAEDTAVYYCVRERVEREYSGYDAFDIWGQGTTVTVSAGGGGSGGGGSGGGGSGAPNFMLTQPHSVSESLGKTVTISCTGSSGSIARKFVQWYQQRPGSSPTTVIYENNQRPSGVSDRFSGSIGSSSNSASLTISGLKTEDEADYYCQSYDSSNVVFGGGTKVTVL
notes: The order of the parts and the format of the tested protein are not spelled out; Detected with anti-Flag-AF488; also called 19H-IgG4-Flag; scFv-Fc antibody 19H9; not shown: IgG4 part, known only from the name 19H9-IgG4-Flag; Flag tag
With B2, in experiment [5], the binding result was “binds”.

B3: 38A1-IgG4-HA (antibody)
chain: EVQLVESGGGLVQPGGSLRLSCAASGFTFSNYAMSWVRQAPGKGLEWVSTISGSGGTTYYADSVKGRFTISRDNSKNTLYLQMNSLRVEDTAVYYCAKDWFRSSSPDAFDIWGQGTTVTVSAGGGGSGGGGSGGGGSGAPSYVLTQPPSVSVAPGQTARITCGGNNIGRKIVHWYQQRPGQAPVLVIYYDTDRPAGIPERFSGSNSGNMATLTISTVGAGDEADYYCQVWDTGSDHVVFGGGTKLTVL
notes: The order of the parts and the format (scFv-IgG4 Fc-HA) of the tested protein are not spelled out; Detected with anti-HA-APC; also called anti-PD-L1 Ab clone 38A1-IgG4-HA; scFv-Fc antibody 38A1; not shown: IgG4 part, known only from the name 38A1-IgG4-HA; HA tag
As to B3, in experiment [5], the binding result is reported as “binds”.

B4: 38A1-IgG4-HA (antibody)
chain: EVQLVESGGGLVQPGGSLRLSCAASGFTFSNYAMSWVRQAPGKGLEWVSTISGSGGTTYYADSVKGRFTISRDNSKNTLYLQMNSLRVEDTAVYYCAKDWFRSSSPDAFDIWGQGTTVTVSAGGGGSGGGGSGGGGSGAPSYVLTQPPSVSVAPGQTARITCGGNNIGRKIVHWYQQRPGQAPVLVIYYDTDRPAGIPERFSGSNSGNMATLTISTVGAGDEADYYCQVWDTGSDHVVFGGGTKLTVL
B4 yielded an EC50 with PD-L1 [4] of 404 pM.
